# Source: ChEMBL document CHEMBL4028801, “A multifactorial approach to hepatobiliary transporter assessment enables improved therapeutic compound development” (Toxicol Sci, 2013)
# Columns and labels:
# [1] = biological target: ATP-binding cassette sub-family C member 2 (Homo sapiens, UniProt Q92887); test: Inhibition of human MRP2 overexpressed in Sf9 cell membrane vesicles assessed as uptake of [3H]-estradiol-17beta-D-glucuronide in presence of ATP and GSH measured after 20 mins by membrane vesicle transport assay
# [2] = biological target: T1, ATP-binding cassette sub-family C member 4 (Homo sapiens, UniProt O15439); test: Inhibition of human MRP4 overexpressed in Sf9 cell membrane vesicles assessed as uptake of [3H]-estradiol-17beta-D-glucuronide in presence of ATP and GSH measured after 20 mins by membrane vesicle transport assay; type: ADME, cell-based
# T1 sequence (O15439 whole entry): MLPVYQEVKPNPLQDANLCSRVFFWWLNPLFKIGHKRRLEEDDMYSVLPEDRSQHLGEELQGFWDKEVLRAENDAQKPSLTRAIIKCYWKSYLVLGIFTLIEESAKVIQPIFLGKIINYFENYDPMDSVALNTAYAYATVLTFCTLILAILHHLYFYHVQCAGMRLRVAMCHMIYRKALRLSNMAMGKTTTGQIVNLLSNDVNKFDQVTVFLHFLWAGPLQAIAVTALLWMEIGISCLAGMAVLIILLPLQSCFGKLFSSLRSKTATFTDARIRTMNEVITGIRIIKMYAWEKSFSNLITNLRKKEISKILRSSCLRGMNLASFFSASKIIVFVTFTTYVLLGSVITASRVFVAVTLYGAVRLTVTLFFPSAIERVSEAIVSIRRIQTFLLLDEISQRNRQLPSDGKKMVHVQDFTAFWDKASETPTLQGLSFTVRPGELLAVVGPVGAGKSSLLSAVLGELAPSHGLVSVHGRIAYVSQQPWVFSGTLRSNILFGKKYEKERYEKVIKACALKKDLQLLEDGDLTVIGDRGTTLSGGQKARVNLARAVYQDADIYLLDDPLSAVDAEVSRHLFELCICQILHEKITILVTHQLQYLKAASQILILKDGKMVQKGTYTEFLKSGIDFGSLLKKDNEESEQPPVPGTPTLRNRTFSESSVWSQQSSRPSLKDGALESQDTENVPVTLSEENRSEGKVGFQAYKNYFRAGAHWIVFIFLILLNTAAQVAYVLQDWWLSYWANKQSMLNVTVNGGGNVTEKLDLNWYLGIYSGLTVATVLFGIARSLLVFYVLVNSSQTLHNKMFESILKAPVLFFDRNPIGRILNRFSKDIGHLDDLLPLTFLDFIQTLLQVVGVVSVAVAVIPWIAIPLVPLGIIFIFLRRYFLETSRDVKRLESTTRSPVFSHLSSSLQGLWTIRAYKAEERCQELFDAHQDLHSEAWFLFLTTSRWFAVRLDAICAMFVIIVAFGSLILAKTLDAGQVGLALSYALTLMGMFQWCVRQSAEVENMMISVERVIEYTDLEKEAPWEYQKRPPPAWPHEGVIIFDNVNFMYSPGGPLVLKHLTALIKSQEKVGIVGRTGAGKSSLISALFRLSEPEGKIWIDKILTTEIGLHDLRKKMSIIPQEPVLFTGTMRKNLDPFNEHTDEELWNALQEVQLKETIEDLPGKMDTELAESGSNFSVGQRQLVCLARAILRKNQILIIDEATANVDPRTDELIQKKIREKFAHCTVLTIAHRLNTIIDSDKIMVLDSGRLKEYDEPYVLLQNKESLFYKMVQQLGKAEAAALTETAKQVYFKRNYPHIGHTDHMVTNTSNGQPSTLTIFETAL
# [3] = AUC in human at 30 to 60 mg, po QD after 24 hrs; type: ADME, organism-based; conditions: in vivo
# [4] = biological target: ATP-binding cassette sub-family C member 3 (Homo sapiens, UniProt O15438); test: Inhibition of human MRP3 overexpressed in Sf9 insect cell membrane vesicles assessed as uptake of [3H]-estradiol-17beta-D-glucuronide in presence of ATP and GSH measured after 10 mins by membrane vesicle transport assay; type: ADME, cell-based
# [5] = Drug concentration at steady state in human at 400 mg, po BID after 12 hrs; type: ADME, organism-based; conditions: in vivo, read-out: Css
# [6] = biological target: Bile salt export pump (Homo sapiens, UniProt O95342); test: Inhibition of human BSEP overexpressed in Sf9 cell membrane vesicles assessed as uptake of [3H]-taurocholate in presence of ATP measured after 15 to 20 mins by membrane vesicle transport assay; type: ADME, cell-based
# [7] = AUC in human at 400 mg, po BID after 12 hrs; type: ADME, organism-based; set-up: time < 12 hr, dose 400 mg, route oral; conditions: in vivo
# [8] = Ratio of drug concentration at steady state in human at 400 mg, po BID after 12 hrs to IC50 for human BSEP overexpressed in Sf9 insect cells; type: ADME, organism-based; conditions: in vivo
# [9] = Drug concentration at steady state in human at 20 to 80 mg, po QD after 24 hrs; type: ADME, organism-based; conditions: in vivo, read-out: Css
# [10] = Ratio of drug concentration at steady state in human at 20 to 80 mg, po QD after 24 hrs to IC50 for human MRP4 overexpressed in Sf9 insect cells; type: ADME, organism-based; conditions: in vivo
# [11] = AUC in human at 20 to 80 mg, po QD after 24 hrs; type: ADME, organism-based; conditions: in vivo
# [12] = Ratio of drug concentration at steady state in human at 20 to 80 mg, po QD after 24 hrs to IC50 for human BSEP overexpressed in Sf9 insect cells; type: ADME, organism-based; conditions: in vivo
# [13] = Ratio of drug concentration at steady state in human at 20 to 80 mg, po QD after 24 hrs to IC50 for human MRP3 overexpressed in Sf9 insect cells; type: ADME, organism-based; conditions: in vivo
# [14] = Ratio of drug concentration at steady state in human at 60 to 120 mg, po QD after 24 hrs to IC50 for human MRP4 overexpressed in Sf9 insect cells; type: ADME, organism-based; conditions: in vivo
# [15] = AUC in human at 60 to 120 mg, po QD after 24 hrs; type: ADME, organism-based; conditions: in vivo
# [16] = Ratio of drug concentration at steady state in human at 60 to 120 mg, po QD after 24 hrs to IC50 for human BSEP overexpressed in Sf9 insect cells; type: ADME, organism-based; conditions: in vivo
# [17] = Drug concentration at steady state in human at 60 to 120 mg, po QD after 24 hrs; type: ADME, organism-based; conditions: in vivo, read-out: Css
# [18] = Ratio of drug concentration at steady state in human at 1 to 16 mg or 4 to 8 mg, po QD extended-release tablets after 24 hrs to IC50 for human BSEP overexpressed in Sf9 insect cells; type: ADME, organism-based; conditions: in vivo
# [19] = Ratio of drug concentration at steady state in human at 1 to 16 mg or 4 to 8 mg, po QD extended-release tablets after 24 hrs to IC50 for human MRP4 overexpressed in Sf9 insect cells; type: ADME, organism-based; conditions: in vivo
# [20] = tested on: Homo sapiens; test: Drug concentration at steady state in human at 1 to 16 mg or 4 to 8 mg, po QD extended-release tablets after 24 hrs; type: ADME, organism-based; conditions: in vivo
# [21] = AUC in human at 1 to 16 mg or 4 to 8 mg, po QD extended-release tablets after 24 hrs; type: ADME, organism-based; conditions: in vivo
# Sequence of ATP-binding cassette sub-family C member 3 (O15438 whole entry): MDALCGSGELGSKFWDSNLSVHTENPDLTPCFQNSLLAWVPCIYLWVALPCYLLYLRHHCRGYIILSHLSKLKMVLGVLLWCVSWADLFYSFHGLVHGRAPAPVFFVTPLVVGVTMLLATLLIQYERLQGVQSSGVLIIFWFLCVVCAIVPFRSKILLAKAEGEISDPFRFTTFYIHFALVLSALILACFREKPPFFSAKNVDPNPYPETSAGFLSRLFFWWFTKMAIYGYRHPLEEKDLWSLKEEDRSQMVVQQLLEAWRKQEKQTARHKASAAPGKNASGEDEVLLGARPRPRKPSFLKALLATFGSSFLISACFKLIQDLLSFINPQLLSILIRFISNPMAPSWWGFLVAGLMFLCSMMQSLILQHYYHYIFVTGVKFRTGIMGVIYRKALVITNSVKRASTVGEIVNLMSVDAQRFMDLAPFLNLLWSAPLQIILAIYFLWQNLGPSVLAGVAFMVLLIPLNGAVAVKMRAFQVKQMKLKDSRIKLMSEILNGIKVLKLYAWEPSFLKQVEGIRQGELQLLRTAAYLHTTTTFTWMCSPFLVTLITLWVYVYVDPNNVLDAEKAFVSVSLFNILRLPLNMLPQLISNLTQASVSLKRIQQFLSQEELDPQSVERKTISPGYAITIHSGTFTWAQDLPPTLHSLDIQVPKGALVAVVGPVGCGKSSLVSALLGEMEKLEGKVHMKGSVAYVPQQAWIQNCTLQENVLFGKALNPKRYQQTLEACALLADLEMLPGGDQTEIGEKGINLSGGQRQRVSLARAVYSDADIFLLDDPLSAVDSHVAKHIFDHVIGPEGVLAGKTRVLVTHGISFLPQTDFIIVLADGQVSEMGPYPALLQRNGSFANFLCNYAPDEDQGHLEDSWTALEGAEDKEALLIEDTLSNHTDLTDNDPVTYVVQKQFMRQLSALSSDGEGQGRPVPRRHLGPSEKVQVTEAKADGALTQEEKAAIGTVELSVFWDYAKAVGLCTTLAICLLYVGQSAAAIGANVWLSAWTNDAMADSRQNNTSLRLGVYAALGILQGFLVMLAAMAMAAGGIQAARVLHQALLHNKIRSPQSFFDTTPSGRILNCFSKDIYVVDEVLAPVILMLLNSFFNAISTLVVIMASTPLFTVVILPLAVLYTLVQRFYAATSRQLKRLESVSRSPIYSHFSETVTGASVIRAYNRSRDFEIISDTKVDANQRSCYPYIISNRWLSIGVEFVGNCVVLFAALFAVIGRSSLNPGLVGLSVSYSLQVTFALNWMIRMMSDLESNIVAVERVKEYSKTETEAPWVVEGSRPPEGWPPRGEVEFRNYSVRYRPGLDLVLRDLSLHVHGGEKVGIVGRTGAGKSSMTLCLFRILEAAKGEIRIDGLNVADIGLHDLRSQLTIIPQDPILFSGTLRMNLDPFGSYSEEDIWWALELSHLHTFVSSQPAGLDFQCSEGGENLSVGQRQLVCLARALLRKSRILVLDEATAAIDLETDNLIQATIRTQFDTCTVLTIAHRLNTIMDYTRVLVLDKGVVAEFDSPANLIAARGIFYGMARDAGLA
# Sequence of ATP-binding cassette sub-family C member 2 (Q92887 whole entry): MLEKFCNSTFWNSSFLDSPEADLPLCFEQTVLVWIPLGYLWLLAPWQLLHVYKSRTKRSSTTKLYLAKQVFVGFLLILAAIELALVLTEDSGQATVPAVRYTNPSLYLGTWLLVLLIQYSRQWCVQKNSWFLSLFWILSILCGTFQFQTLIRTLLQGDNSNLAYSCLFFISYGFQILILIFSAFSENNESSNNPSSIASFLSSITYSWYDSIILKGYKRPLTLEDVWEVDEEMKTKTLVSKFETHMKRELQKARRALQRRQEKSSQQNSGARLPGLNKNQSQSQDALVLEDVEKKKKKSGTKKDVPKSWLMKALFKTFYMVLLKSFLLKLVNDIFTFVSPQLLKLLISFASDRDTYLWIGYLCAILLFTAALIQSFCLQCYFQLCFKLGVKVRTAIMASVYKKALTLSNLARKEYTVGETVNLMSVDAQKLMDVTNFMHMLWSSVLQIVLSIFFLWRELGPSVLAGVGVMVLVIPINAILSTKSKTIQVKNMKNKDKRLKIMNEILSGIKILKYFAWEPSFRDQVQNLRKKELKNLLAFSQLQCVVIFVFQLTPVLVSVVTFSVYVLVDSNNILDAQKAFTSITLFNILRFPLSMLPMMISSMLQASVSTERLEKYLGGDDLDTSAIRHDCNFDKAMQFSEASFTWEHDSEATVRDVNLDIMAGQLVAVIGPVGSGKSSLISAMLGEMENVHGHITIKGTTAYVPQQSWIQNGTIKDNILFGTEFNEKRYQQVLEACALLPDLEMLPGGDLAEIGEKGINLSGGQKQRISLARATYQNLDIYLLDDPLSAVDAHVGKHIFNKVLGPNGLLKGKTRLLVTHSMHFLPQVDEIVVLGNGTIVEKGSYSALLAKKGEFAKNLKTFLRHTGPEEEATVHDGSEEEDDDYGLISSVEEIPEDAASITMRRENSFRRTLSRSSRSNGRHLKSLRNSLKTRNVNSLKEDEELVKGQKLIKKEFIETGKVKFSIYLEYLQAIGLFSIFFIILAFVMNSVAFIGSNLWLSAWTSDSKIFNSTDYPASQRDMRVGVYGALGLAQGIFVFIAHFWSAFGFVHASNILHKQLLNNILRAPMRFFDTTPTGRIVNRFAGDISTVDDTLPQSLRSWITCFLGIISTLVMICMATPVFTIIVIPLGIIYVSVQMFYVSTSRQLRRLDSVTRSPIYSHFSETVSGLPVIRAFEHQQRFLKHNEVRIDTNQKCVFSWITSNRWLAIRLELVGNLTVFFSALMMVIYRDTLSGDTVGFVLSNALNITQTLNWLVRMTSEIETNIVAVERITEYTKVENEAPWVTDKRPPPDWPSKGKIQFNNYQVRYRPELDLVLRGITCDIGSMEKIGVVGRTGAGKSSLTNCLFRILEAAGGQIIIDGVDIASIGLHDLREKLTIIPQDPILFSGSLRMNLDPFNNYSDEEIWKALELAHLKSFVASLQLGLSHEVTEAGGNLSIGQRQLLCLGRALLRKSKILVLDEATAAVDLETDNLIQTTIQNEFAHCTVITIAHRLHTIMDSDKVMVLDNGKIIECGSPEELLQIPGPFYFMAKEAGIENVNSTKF
# Sequence of Bile salt export pump (O95342 whole entry): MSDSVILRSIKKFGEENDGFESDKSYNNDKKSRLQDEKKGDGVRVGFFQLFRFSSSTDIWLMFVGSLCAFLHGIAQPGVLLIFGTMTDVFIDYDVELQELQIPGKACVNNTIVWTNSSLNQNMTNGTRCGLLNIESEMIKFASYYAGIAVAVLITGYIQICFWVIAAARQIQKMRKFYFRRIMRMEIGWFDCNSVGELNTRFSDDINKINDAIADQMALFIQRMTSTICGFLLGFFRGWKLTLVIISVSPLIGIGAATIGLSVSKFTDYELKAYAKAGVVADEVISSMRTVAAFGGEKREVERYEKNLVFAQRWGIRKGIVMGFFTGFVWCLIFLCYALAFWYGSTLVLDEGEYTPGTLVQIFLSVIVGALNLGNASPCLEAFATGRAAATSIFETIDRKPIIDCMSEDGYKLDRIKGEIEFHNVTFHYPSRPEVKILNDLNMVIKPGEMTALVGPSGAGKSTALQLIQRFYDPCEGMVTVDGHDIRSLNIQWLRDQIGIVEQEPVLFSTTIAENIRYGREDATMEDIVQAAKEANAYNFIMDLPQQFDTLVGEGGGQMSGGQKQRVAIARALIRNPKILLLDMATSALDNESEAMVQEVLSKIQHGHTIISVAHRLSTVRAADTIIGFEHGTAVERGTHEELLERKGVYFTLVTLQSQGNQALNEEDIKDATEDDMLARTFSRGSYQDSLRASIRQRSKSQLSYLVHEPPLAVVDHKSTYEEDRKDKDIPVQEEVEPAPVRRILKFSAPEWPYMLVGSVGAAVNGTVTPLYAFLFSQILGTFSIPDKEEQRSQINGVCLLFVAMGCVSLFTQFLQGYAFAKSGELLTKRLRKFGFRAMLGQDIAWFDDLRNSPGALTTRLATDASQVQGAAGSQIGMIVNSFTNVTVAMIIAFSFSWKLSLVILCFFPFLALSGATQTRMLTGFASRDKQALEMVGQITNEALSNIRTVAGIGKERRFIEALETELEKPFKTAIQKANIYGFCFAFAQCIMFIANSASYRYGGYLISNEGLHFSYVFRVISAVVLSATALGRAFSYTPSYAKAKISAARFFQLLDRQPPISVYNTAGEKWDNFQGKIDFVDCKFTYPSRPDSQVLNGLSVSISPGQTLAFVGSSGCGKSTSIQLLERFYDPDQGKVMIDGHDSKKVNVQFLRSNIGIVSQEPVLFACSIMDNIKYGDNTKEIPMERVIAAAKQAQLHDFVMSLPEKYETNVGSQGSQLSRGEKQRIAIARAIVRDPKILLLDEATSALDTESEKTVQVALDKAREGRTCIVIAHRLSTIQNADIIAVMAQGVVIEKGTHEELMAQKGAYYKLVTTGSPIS
IC50 [1] [µM],IC50 [2] [µM],IC50 [4] [µM],Structure (SMILES),IC50 [6] [µM],other results
> 133,> 133,> 133,CCCCc1oc2ccc(NS(C)(=O)=O)cc2c1C(=O)c1ccc(OCCCN(CCCC)CCCC)cc1.Cl [DRONEDARONE HYDROCHLORIDE],73.9,concentration at 12 h [5]: 133 nM; AUC at 12 h [7]: 1.6 µM·h; Ratio [8]: 0.002
> 133,88,> 133,COC(=O)C1=C(C)NC(C)=C(C(=O)OCCN(C)Cc2ccccc2)C1c1cccc([N+](=O)[O-])c1 (centres undefined) [NICARDIPINE],,Ratio [14]: 0; AUC at 24 h [15]: 0.72 µM·h; Ratio [16]: 0.004; concentration at 24 h [17]: 30 nM
> 133,8,> 133,COc1cc2nc(N3CCN(C(=O)C4COc5ccccc5O4)CC3)nc(N)c2cc1OC.CS(=O)(=O)O (centres undefined) [DOXAZOSIN MESYLATE],45,Ratio [18]: 0.002; Ratio [19]: 0.009; Css [20]: 68 nM; AUC at 24 h [21]: 1.64 µM·h

Structure (SMILES),IC50 [1] [µM],IC50 [2] [µM],IC50 [4] [µM],IC50 [6] [µM],other results
COC(=O)C1=C(C)NC(C)=C(C(=O)OC)C1c1ccccc1[N+](=O)[O-] [NIFEDIPINE],> 133,16.6,> 133,,AUC at 24 h [3]: 3.48 µM·h
CCCc1nc2c(C)cc(-c3nc4ccccc4n3C)cc2n1Cc1ccc(-c2ccccc2C(=O)O)cc1,> 133,36,60,,concentration at 24 h [9]: 149 nM; Ratio [10]: 0.004; AUC at 24 h [11]: 3.57 µM·h; Ratio [12]: 0.009; Ratio [13]: 0.002
